Test results from patent US20070134261A1, “Effectors of innate immunity” (priority 2001, published 2007).
Like-named read-outs stand apart in the source and are kept apart here. No end group written: not given here.

What was measured:
[1] = format: cell-based
[2] = test system: human bronchial epithelial cells (HBE); test: LDH release assay (Cytotoxicity Detection Kit); format: cell-based; details: 24 hours; for LDH Release (OD490 nm): 100 μg/ml, no peptide control 1.0 ± 0.05
Method: (§1) The potential toxicity of the peptides was measured in two ways. First, the Cytotoxicity Detection Kit (Roche) (Lactate dehydrogenase-LDH) Assay was used. It is a colorimetric assay for the quantification of cell death and cell lysis, based on the measurement of LDH activity released from the cytosol of damaged cells into the supernatant. LDH is a stable cytoplasmic enzyme present in all cells and it is released into the cell culture supernatant upon damage of the plasma membrane. An increase in the amount of dead or plasma membrane-damaged cells results in an increase of the LDH enzyme activity in the culture supernatant as measured with an ELISA plate reader, OD490 nm (the amount of color formed in the assay is proportional to the number of lysed cells). In this assay, human bronchial epithelial cells (I6HBEo14, HBE) cells were incubated with 100 μg of peptide for 24 hours, the supernatant removed and tested for LDH. The other assay used to measure toxicity of the cationic peptides was the WST-1 assay (Roche). This assay is a colorimetric assay for the quantification of cell proliferation and cell viability, based on the cleavage of the tetrazolium salt WST-1 by mitochondrial dehydrogenases in viable cells (a non-radioactive alternative to the [^3H]-thymidine incorporation assay). In this assay, HBE cells were incubated with 100 μg of peptide for 24 hours, and then 10 μl/well Cell Proliferation Reagent WST-1 was added. The cells are incubated with the reagent and the plate is then measured with an ELISA plate reader, OD490 nm.

HBE cells = test: WST-1 assay (cell viability); format: cell-based, human
Method: as §1

A549 epithelial cells = test: Human Operon arrays (PRHU04-S1) of A549 cells treated with peptide alone (Tables 31-37, 53); details: peptide 50 μg/ml, 4 h, A549 cells
[3] = Citobacter rhodensis, overnight, 96-well plate
[4] = Enterohaemorrhagic E. coli, overnight, 96-well plate
[5] = Escherichia coli, overnight, 96-well plate
[6] = Pseudomonas aeruginosa, overnight, 96-well plate
[7] = Salmonella enteritidis ssp. typhimurium, overnight, 96-well plate

For “KTKKFAKMLMMALKKVVSTAKPLAILS [SEQ ID NO: 42]”, the “MIC, C. rhod.” value ([1]; 24 h) was 2 µg/mL, the “MIC, E. coli” value ([1]; 24 h) was 1.5 µg/mL and the “MIC, EHEC” value ([1]; 24 h) was 1 µg/mL. For the same substance, the “MIC, P. aerug.” value ([1]; 24 h) was 4 µg/mL, the “MIC, S. aureus” value ([1]; 24 h) was 64 µg/mL and the “MIC, S. typhim.” value ([1]; 24 h) was 2 µg/mL. For the same substance, the “LDH Release (OD490 nm)” value [2] was 3.4 ± 0.2 OD490 nm, the “toxicity / membrane damage” value ([2]; as measured by both assays (LDH, WST-1), HBE cells) was “did induce membrane damage” and the “OD490 nm (WST-1 cell viability)” value (HBE cells) was 0.39 ± 0.08 OD490 nm.

For “KWKSFLRTFKSPVRTVFHTALKPISS [SEQ ID NO: 53]”, the “MIC, C. rhod.” value [1, 3] was 16 µg/mL, the “MIC, EHEC” value [1, 4] was 8 µg/mL and the “MIC, E. coli” value [1, 5] was 4 µg/mL. The “MIC, P. aerug.” value [1, 6] was 8 µg/mL, the “MIC, S. typhim.” value [1, 7] was 8 µg/mL and the “LDH Release (OD490 nm)” value [2] was 103 ± 0.06 OD490 nm. The “OD490 nm (WST-1 cell viability)” value (HBE cells) was 1.51 ± 0.37 OD490 nm.

In the case of “KWKSYAHTIMSPVRLIFHTALKPISS [SEQ ID NO: 48]”, the “MIC, C. rhod.” value [1, 3] is reported as 1 µg/mL, the “MIC, EHEC” value [1, 4] is reported as 2 µg/mL and the “MIC, E. coli” value [1, 5] is reported as 16 µg/mL. The “MIC, P. aerug.” value [1, 6] was 128 µg/mL, the “MIC, S. typhim.” value [1, 7] was 16 µg/mL and the “LDH Release (OD490 nm)” value [2] was 0.95 ± 0.05 OD490 nm. For the same substance, the “OD490 nm (WST-1 cell viability)” value (HBE cells) was 0.93 ± 0.08 OD490 nm.

For LSRIAPAIPWAKL [SEQ ID NO: 10], the “MIC, EHEC” value ([1]; 24 h) was 64 µg/mL, the “LDH Release (OD490 nm)” value [2] was 1.04 ± 0.04 OD490 nm and the “OD490 nm (WST-1 cell viability)” value (HBE cells) was 1.22 ± 0.05 OD490 nm.

In the case of NLPDLKKPRVPATS [ID 17], the “ID#:ctrl intensity ratio, M14565 cytochrome P450” value (A549 epithelial cells) is reported as 6.3.

With NLPDLKKPRVPATS [SEQ ID NO: 17] the “LDH Release (OD490 nm)” value [2] was 0.94 ± 0.04 OD490 nm and the “OD490 nm (WST-1 cell viability)” value (HBE cells) was 1.60 ± 0.46 OD490 nm.

In the case of Polymyxin, the “MIC, C. rhod.” value [1, 3] is reported as 0.25 µg/mL, the “MIC, EHEC” value [1, 4] is reported as 0.5 µg/mL and the “MIC, E. coli” value [1, 5] is reported as 0.25 µg/mL. The “MIC, P. aerug.” value [1, 6] was 0.25 µg/mL, the “MIC, S. typhim.” value [1, 7] was 0.5 µg/mL and the “MIC, S. aureus” value ([1]; Staphylococcus aureus, overnight, 96-well plate) was 16 µg/mL.

In the case of RAAFKWAWAWWRRK [ID 23], the “ID#:ctrl intensity ratio, X65962 cytochrome P-450” value (A549 epithelial cells) is reported as 19.8.

With RAPYWPWAWARPRK [ID 21] the “ID#:ctrl intensity ratio, X65962 cytochrome P-450” value (A549 epithelial cells) was 5.7.

In the case of “RLARIVVIRVAR-NH2 [SEQ ID NO: 3, reference compound]”, the “LDH Release (OD490 nm)” value [2] is reported as 1.05 ± 0.04 OD490 nm and the “OD490 nm (WST-1 cell viability)” value (HBE cells) is reported as 1.35 ± 0.12 OD490 nm.

For RRARIVPAIPVARR [SEQ ID NO: 9], the “LDH Release (OD490 nm)” value [2] was 1.6 ± 0.03 OD490 nm and the “OD490 nm (WST-1 cell viability)” value (HBE cells) was 1.69 ± 0.29 OD490 nm.

In the case of RRAWWKAWWARRK [ID 20], the “ID#:ctrl intensity ratio, X65962 cytochrome P-450” value (A549 epithelial cells) is reported as 25.3.

In the case of RRRWKWAWPRRK [ID 24], the “ID#:ctrl intensity ratio, X65962 cytochrome P-450” value (A549 epithelial cells) is reported as 12.0.

With SELPGLKHPCVPGS [SEQ ID NO: 13] the “LDH Release (OD490 nm)” value [2] was 0.93 ± 0.06 OD490 nm and the “OD490 nm (WST-1 cell viability)” value (HBE cells) was 1.23 ± 0.11 OD490 nm.

In the case of SLPIKHDRLPATS [ID 15], the “ID#:ctrl intensity ratio, M14565 cytochrome P450” value (A549 epithelial cells) is reported as 3.6.

With TTLGPVKRDSIPGE [ID 14] the “ID#:ctrl intensity ratio, M14565 cytochrome P450” value (A549 epithelial cells) was 5.0.

In the case of TTLGPVKRDSIPGE [SEQ ID NO: 14], the “LDH Release (OD490 nm)” value [2] is reported as 0.99 ± 0.05 OD490 nm and the “OD490 nm (WST-1 cell viability)” value (HBE cells) is reported as 1.25 ± 0.02 OD490 nm.

In the case of Triton X-100 [reference compound], the “LDH Release (OD490 nm)” value [2] is reported as 4.6 ± 0.1 OD490 nm and the “OD490 nm (WST-1 cell viability)” value (HBE cells) is reported as 0.26 ± 0.01 OD490 nm.
